Results as given in ChEMBL document CHEMBL3399998, “Synthesis and biological evaluation of chalcone analogues as protective agents against cisplatin-induced cytotoxicity in kidney cells” (Bioorg Med Chem Lett, 2015).
Active and inactive are the calls of the source. No cut-off for these calls is given here.

Experiments:
RAW264.7 = assay: Suppression of LPS-induced NO production in mouse RAW264.7 cells treated for 2 hrs and followed by challenged with […] for 24 hrs by griess reagent; assay type: functional, cell-based
LLC-PK1 [1] = assay: Renoprotective activity against cisplatin-induced cytotoxicity in pig LLC-PK1 cells assessed as recovery of cell viability treated for 2 hrs and followed by challenged with cisplatin for 24 hrs by MTT assay; assay type: functional, cell-based; conditions: Sus scrofa
LLC-PK1 [2] = assay: Renoprotective activity against cisplatin-induced cytotoxicity in pig LLC-PK1 cells assessed as recovery of cell viability at 125 uM treated for 2 hrs and followed by challenged with cisplatin for 24 hrs by MTT assay; assay type: functional, cell-based; conditions: Sus scrofa
LLC-PK1 [3] = assay: Renoprotective activity against cisplatin-induced apoptosis in pig LLC-PK1 cells assessed as reduction in cisplatin-induced phosphorylated JNK at 25 uM treated for 2 hrs and followed by challenged with cisplatin for 24 hrs by Western blot analysis; assay type: functional, cell-based; conditions: Sus scrofa
LLC-PK1 [4] = assay: Renoprotective activity against cisplatin-induced cytotoxicity in pig LLC-PK1 cells assessed as recovery of cell viability at 25 uM treated for 2 hrs and followed by challenged with cisplatin for 24 hrs by MTT assay; assay type: functional, cell-based; conditions: Sus scrofa
LLC-PK1 [5] = assay: Reduction in cisplatin-induced MAPK phosphorylation in pig LLC-PK1 cells at 25 uM treated for 2 hrs and followed by challenged with cisplatin for 24 hrs by Western blot analysis; assay type: cell-based; conditions: Sus scrofa
LLC-PK1 [6] = assay: Renoprotective activity against cisplatin-induced apoptosis in pig LLC-PK1 cells assessed as reduction in cisplatin-induced phosphorylated ERK at 25 uM treated for 2 hrs and followed by challenged with cisplatin for 24 hrs by Western blot analysis; assay type: functional, cell-based; conditions: Sus scrofa
LLC-PK1 [7] = assay: Renoprotective activity against cisplatin-induced apoptosis in pig LLC-PK1 cells assessed as reduction in cisplatin-induced phosphorylated p38 at 25 uM treated for 2 hrs and followed by challenged with cisplatin for 24 hrs by Western blot analysis; assay type: functional, cell-based; conditions: Sus scrofa
LLC-PK1 [8] = assay: Renoprotective activity against cisplatin-induced apoptosis in pig LLC-PK1 cells assessed as reduction in cisplatin-induced cleaved caspase-3 at 25 uM treated for 2 hrs and followed by challenged with cisplatin for 24 hrs by Western blot analysis; assay type: functional, cell-based; conditions: Sus scrofa
LLC-PK1 [9] = assay: Renoprotective activity against cisplatin-induced apoptosis in pig LLC-PK1 cells assessed as reduction in cisplatin-induced dead and apoptotic cells at 25 uM treated for 2 hrs and followed by challenged with cisplatin for 24 hrs by annexin V/Tali image-based cytometry; assay type: functional, cell-based; conditions: Sus scrofa
LLC-PK1 [10] = assay: Renoprotective activity against cisplatin-induced apoptosis in pig LLC-PK1 cells assessed as reduction in cisplatin-induced p53 level at 25 uM treated for 2 hrs and followed by challenged with cisplatin for 24 hrs by Western blot analysis; assay type: functional, cell-based; conditions: Sus scrofa
LLC-PK1 [11] = assay: Renoprotective activity against cisplatin-induced cytotoxicity in pig LLC-PK1 cells assessed as recovery of cell viability at 2 to 25 uM treated for 2 hrs and followed by challenged with cisplatin for 24 hrs by MTT assay; assay type: functional, cell-based; conditions: Sus scrofa
LLC-PK1 [12] = assay: Renoprotective activity against cisplatin-induced cytotoxicity in pig LLC-PK1 cells assessed as recovery of cell viability at 25 to 125 uM treated for 2 hrs and followed by challenged with cisplatin for 24 hrs by MTT assay; assay type: functional, cell-based; conditions: Sus scrofa

Compound	inhibition (RAW264.7)	Activity (LLC-PK1 [1])	Activity (LLC-PK1 [2])	Activity (LLC-PK1 [3])	Activity (LLC-PK1 [4])	inhibition (LLC-PK1 [5])	Activity (LLC-PK1 [6])	Activity (LLC-PK1 [7])	Activity (LLC-PK1 [8])	Activity (LLC-PK1 [9])	Activity (LLC-PK1 [10])	Activity (LLC-PK1 [11])	Activity (LLC-PK1 [12])
COc1ccc(/C=C/C(=O)c2ccc(Br)cc2)cc1OC	Dose-dependent effect	Dose-dependent effect	Active										
COc1cc(Br)c(/C=C/C(=O)c2ccc(Br)cc2)cc1OC	Dose-dependent effect	Dose-dependent effect		Active	Active	Active	Active	Active	Active	Active	Active	Active	
COc1cccc(C(=O)/C=C/c2cc(OC)c(OC)cc2Br)c1	Dose-dependent effect	Dose-dependent effect											
COc1cccc(C(=O)/C=C/c2ccc(Cl)cc2)c1	Dose-dependent effect	Dose-dependent effect		Active			Active	Active	Active	Active	Active		
Cc1ccc(/C=C/C(=O)c2ccc(Cl)cc2)cc1	Dose-dependent effect	Dose-dependent effect	Active										
COc1ccc(C(=O)/C=C/c2cc(OC)c(Br)c(OC)c2)cc1OC	Dose-dependent effect	Dose-dependent effect											inactive
